Here are results for 9 compounds from PubChem BioAssay (NCI).

What all share (experiment): DTP human tumour cell line panel, 48 h
Assay [1] relates to SNB-75 CNS.
In assay [2] the test system is MCF7 breast.
For assay [3], the system named is HT29 colon.
The subject of assay [4] is MDA-MB-435.
The subject of assay [5] is SW-620 colon.
The test system of assay [6] is ACHN renal.
In assay [7] the test system is T-47D breast.
The test system of assay [8] is TK-10 renal.
The subject of assay [9] is K-562 leukemia.
Assay [10] relates to BT-549 breast.
Assay [11] has as its system HCT-15 colon.
Assay [12] relates to OVCAR-8 ovarian.
For assay [13], the system named is NCI-H522 lung.
Assay [14] relates to SK-OV-3 ovarian.
The subject of assay [15] is SN12C renal.
The test system of assay [16] is MOLT-4 leukemia.

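A five-concentration, 48-hour dose response in 96-well plates underlies each endpoint, interpolated linearly between surrounding concentrations. The concentration for full growth arrest is given as TGI.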 Where only a bound is given, the exact number is not on record here.

`O=C1N[C@@H](c2c[nH]c3cc(Br)ccc23)C(=O)N[C@H]1c1c[nH]c2cc(Br)ccc12`: the TGI in assay [1] was 90.1 µM; in assay [2], greater than 100 µM; in assay [3] it was greater than 100 µM; in [4], greater than 100 µM; in assay [5], greater than 100 µM; in assay [6] it was greater than 100 µM. Further, the concentration for total growth inhibition (TGI) in assay [7], in assay [8], in [9], in [10], in [11] and in [12] was greater than 100 µM in each case. In addition, the TGI in assay [13], in [14] and in assay [15] was greater than 100 µM each time.

`Cc1ccc(C)c(COCCOCn2ccc(N)nc2=O)c1`: the TGI in assay [1], in assay [2], in [4], in assay [5], in assay [16] and in assay [6] was greater than 100 µM in each case. In addition, the TGI in assay [7], in assay [8], in [9], in [10], in assay [11] and in assay [12] was greater than 100 µM throughout. Moreover, the TGI in assay [13], in [14] and in assay [15] was greater than 100 µM throughout.

Take `COc1ccc(C2=Nn3c(nnc(Cc4ccc(Cl)cc4)c3=O)SC2)cc1`: the concentration for total growth inhibition (TGI) was greater than 100 µM in assay [2]; greater than 100 µM in [3]; 33.4 µM in assay [4]; greater than 100 µM in [5]; greater than 100 µM in assay [16]; greater than 100 µM in assay [6]. In addition, the TGI in assay [7], in assay [8], in assay [9], in [10], in assay [11] and in assay [12] was greater than 100 µM in each case. Further, the concentration for total growth inhibition (TGI) in assay [13], in [14] and in assay [15] was greater than 100 µM each time.

`CCn1c2ccccc2n2c(=O)c3c(c(C#N)c12)CCCC3`: the TGI in assay [2], in assay [3], in assay [4], in [5], in assay [16] and in assay [6] was greater than 100 µM throughout. In addition, the concentration for total growth inhibition (TGI) in assay [7], in assay [8], in assay [9], in assay [10], in assay [11] and in [12] was greater than 100 µM throughout. Further, the TGI in assay [13], in [14] and in assay [15] was greater than 100 µM in each case.

For the compound `CC(C)Oc1ccc2c(c1)OCC1Cc3ccccc3OC21` (centres undefined), the TGI in assay [2], in assay [3], in assay [4], in assay [5], in assay [16] and in assay [7] was greater than 100 µM each time. Further, the TGI in [8] is greater than 100 µM; in assay [9], greater than 100 µM; in [10] it was greater than 100 µM; in assay [11] it was 46.2 µM; in [12], greater than 100 µM; in assay [13], greater than 100 µM. For the same compound, the concentration for total growth inhibition (TGI) in [14] and in [15] was greater than 100 µM each time.

With `Cc1nn(C(=O)Cc2ccccc2)c2c1C(c1ccc(N(C)C)cc1)SC(N)=N2` (centres undefined), the TGI in assay [1] is 32.9 µM; in assay [2] it was greater than 100 µM; in assay [3], greater than 100 µM; in assay [4], greater than 100 µM; in assay [5] it was greater than 100 µM; in assay [16], greater than 100 µM. Moreover, the TGI in [6], in assay [7], in assay [8], in [10], in assay [11] and in assay [12] was greater than 100 µM throughout. The concentration for total growth inhibition (TGI) in [13], in assay [14] and in [15] was greater than 100 µM throughout.

With `CC12CCC([C@H](C(O)C3CCCCC3)C1=O)C2(C)C` (some centres undefined), the TGI in assay [1], in assay [2], in assay [4], in assay [5], in [16] and in assay [6] was greater than 100 µM in each case. Besides, the TGI in assay [7], in assay [8], in assay [9], in [10], in assay [11] and in assay [12] was greater than 100 µM in each case. Also, the concentration for total growth inhibition (TGI) in assay [13], in assay [14] and in assay [15] was greater than 100 µM in each case.

As for `CC1=CC(=O)N(n2c(Cc3ccccc3)n[nH]c2=O)C1=O`, the total growth inhibition concentration (TGI) in assay [2], in assay [3], in assay [4], in [5], in assay [16] and in [6] was greater than 100 µM each time. Also, the TGI in [7], in [8], in assay [9], in [10], in assay [11] and in assay [12] was greater than 100 µM each time. For the same compound, the concentration for total growth inhibition (TGI) in assay [13], in assay [14] and in assay [15] was greater than 100 µM each time.

In the case of `COC(=O)C1C(=O)C=CN([C@H](C)c2ccccc2)[C@@H]1Cc1ccc(OC)c(OCc2ccccc2)c1I` (some centres undefined), the concentration for total growth inhibition (TGI) in assay [2] was 49.3 µM; in assay [3], 26.7 µM; in assay [4], 47.8 µM; in [5], greater than 100 µM; in assay [16] it was greater than 100 µM; in assay [6], 70 µM. Also, the TGI in assay [7] was 60.9 µM; in assay [8] it was 60.4 µM; in assay [9] it was greater than 100 µM; in [10], 38 µM; in assay [11], 27 µM; in assay [12], greater than 100 µM. Further, the figures for the TGI in [13], in [14] and in [15] were 36.8 µM, greater than 100 µM and 28.8 µM, respectively.

A word on the TGI: it is the concentration at which net growth stops. A high value points to less potent growth arrest.
